Assay results published in patent US11208642B2, “Microbial syringol utilization” (Alliance for Sustainable Energy, LLC, priority 2018, dated 2021).

How the values were obtained:
Format in all cases: biochemical
GcoA-F169A [1] = molecular target: T1, GcoA-F169A (Amycolatopsis sp., UniProt P0DPQ7, F169A/H210Q); test: Rate of NADH disappearance (UV/vis) with each substrate; settings: GcoA-F169A with the named substrate
T1 construct: GST (N, cleaved yes); made in house; host or cells: E. coli Rosetta 2 (DE3)
Procedure: (§1) To address whether guaiacol and/or syringol would serve as substrates of GcoA-F169A, the disappearance of NADH (UV/vis) and aromatic substrate (HPLC) was monitored over time (FIG. 1). The rates of organic substrate and NADH consumption were robust and the same within error, regardless of whether guaiacol or syringol was used (5.3±0.3 μM guaiacol s^−1 μmol GcoA-F169A^−1, 5.8±0.8 μM NADH s^−1 μmol GcoA-F169A-1; 4.1±0.3 μM syringol s^−1 μmol GcoA-F169A^−1, 5.1±0.8 μM NADH s^−1 μmol GcoA-F169A^−1).
Steady state kinetics of F169A. 0.2 μM each of F169A GcoA and GcoB were dissolved in air-saturated buffer (25 mM HEPES, 50 mM NaCl) in a cuvette at pH 7.5, 25° C. 100 μg/mL catalase was added to each reaction to capture any H2O2 formed during the uncoupled reaction. A saturating amount of NADH (≥5 KM, 300 μM) was added and a background rate of NADH oxidation in air (about 210 μM O2) recorded via continuous scanning of the UV/vis spectrum (Varian Cary 50). 20-300 μM guaiacol or syringol 2-20 mM stock dissolved in DMSO was added and the reaction was monitored via measurement of UV/vis spectra for several minutes. The initial velocity was determined by disappearance of the characteristic NADH absorbance at 340 nm ([…]=6.22 mM^−1 cm^−1). A plot of vi versus the concentration of guaiacol was fit to equation 4 to obtain kcat, KM, and kcat/KM. For specific activity determination, the above method was used but with saturating (300 μM) guaiacol, syringol, or 3-methoxycatechol (3MC), and in the presence of all F169 GcoA mutants (A, H, S, V, I, L). The linear portion of the concentration of NADH versus time was fit and referenced to the amount of GcoA used (0.2 μM). Reported values are the average of at least 3 measurements and reported errors are standard deviations. vi=Vmax[S]/(KM+[S]) Equation (4): […]

GcoA-F169A [2] = molecular target: T1, GcoA-F169A; test: Rate of aromatic substrate disappearance by discontinuous HPLC; settings: GcoA-F169A/GcoB, substrate disappearance over time
Procedure: as §1
HPLC for product identification and specific activity measurement. HPLC was used to verify the O-demethylated product of GcoA-F169A GcoA/GcoB with guaiacol, syringol, or 3MC. In addition, discontinuous HPLC was used to determine the specific activity of aromatic […] disappearance.
Analyte analysis of the above end-point reactions (100 μM guaiacol, syringol, or 3MC, or 200 μM syringol) was performed on an Agilent 1100 LC system (Agilent Technologies) equipped with a G1315B diode array detector (DAD). Each sample and standard was injected at a volume of 10 μL onto a Symmetry C18 column 5 μm, 4.6×150 mm column (Waters). The column temperature was maintained at 30° C. and the buffers used to separate the analytes of interest was 0.01% TFA in water (A)/acetonitrile (B). The separation was carried out using a gradient program of: (A)=99% and (B)=1% at time t=0 min; (A)=99% and (B)=1% at time t=2 min, (A)=50% and (B)=50% at t=8 min; (A)=1% and (B)=99% at t=8.01 min; (A)=99% and (B)=1% at t=10.01 min; (A)=99% and (B)=1% at t=11 min. The flow rate was held constant at 1.5 mL min^−1, resulting in a run time of 11 minutes. DAD wavelengths of 210 and 325 nm were used for analysis of the analytes of interest. […] Integrated intensities vs [standards] were plotted and the resulting standard curves used to quantify the reactants and products.
For specific activity determination, 300 μM guaiacol, syringol, or 3MC were added from 0.1 M DMSO stocks to air saturated buffer (25 mM HEPES, 50 mM NaCl, pH 7.5), with a final volume of 1 mL. The concentration of analyte was measured via the above HPLC method. […]

GcoA-F169A and GcoB = molecular target: T2, GcoA-F169A and GcoB (Amycolatopsis sp., UniProt P0DPQ7, F169A/H210Q); test: Uncoupling reactions: H2O2 by Amplex Red/HRP assay referenced to NADH consumed
T2 construct: GST (N, cleaved yes); made in house; host or cells: E. coli Rosetta 2 (DE3)
Procedure: The ^a in Table 3 notes that 0.2 μM GcoA-F169A and GcoB were reacted with 100 μg catalase, 100 or 200 μM NADH, and 100 μM substrate in 25 mM HEPES, 50 mM NaCl, pH 7.5, 25° C., 210 μM O2. Endpoint analyses were done to quantify formaldehyde produced, which was then referenced to NADH consumed. The ^b in Table 3 notes that the same reaction done above was repeated to quantify H2O2 produced using the Amplex Red/HRP assay. The amount of hydrogen peroxide was then referenced to NADH consumed.
Detection of H2O2 via HRP and Amplex Red assay. A colorimetric assay involving horseradish peroxidase (HRP) and Amplex Red was used to quantify H2O2 in the reaction between GcoA-F169A GcoA/GcoB, NADH and guaiacol, syringol, or 3MC.
Detection of H2O2 via horseradish peroxidase (HRP) and Amplex Red assay. The reaction between 100 μM guaiacol or 3MC with 0.2 μM F169A/GcoB and 100 μM NADH in air-saturated buffer (25 mM HEPES, 50 mM NaCl, pH 7.5) was monitored continuously in a quartz cuvette, using the NADH consumption assay described above. The same thing was done for syringol, but with either 100 or 200 μM NADH. When there was no longer any change in the spectra, e.g., the reaction was completed, 100 μL was removed from the cuvette and pipetted into a 96-well microplate. A 5 mL solution containing 50 μL of 10 mM Amplex Red (prepared in DMSO and stored at −20° C.) and 100 μL of 10 U/mL HRP was made up in the above buffer. One hundred μL of this was added to each of the wells with each reaction sample. The plate was incubated in the dark at room temperature for 30 min, at which point the absorbance at 572 nm was recorded by a Varioskan Lux microplate reader (Thermo Scientific). The absorbance was compared to a standard curve with 0-100 μM H2O2 to quantify the amount of peroxide produced in the reactions.

T2 sequence (P0DPQ7 whole entry F169A/H210Q): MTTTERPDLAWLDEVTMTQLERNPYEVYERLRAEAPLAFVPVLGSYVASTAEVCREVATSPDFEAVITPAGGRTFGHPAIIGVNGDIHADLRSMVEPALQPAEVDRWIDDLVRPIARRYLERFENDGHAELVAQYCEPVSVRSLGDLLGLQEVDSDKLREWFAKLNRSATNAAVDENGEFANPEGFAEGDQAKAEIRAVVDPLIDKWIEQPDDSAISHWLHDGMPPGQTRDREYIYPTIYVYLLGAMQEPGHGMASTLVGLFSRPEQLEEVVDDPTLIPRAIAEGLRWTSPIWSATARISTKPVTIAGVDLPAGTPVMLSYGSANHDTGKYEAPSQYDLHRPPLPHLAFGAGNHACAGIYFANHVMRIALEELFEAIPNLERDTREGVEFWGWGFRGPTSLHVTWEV
T1 sequence (P0DPQ7 whole entry F169A/H210Q): as above

| SMILES | Rate of NADH consumption (UV/vis) (GcoA-F169A [1]) | Rate of organic substrate consumption (HPLC) (GcoA-F169A [2]) | % H2O2 produced (GcoA-F169A and GcoB; 100 μM substrate + 100 μM NADH) [%] | % H2O2 produced (GcoA-F169A and GcoB; 100 μM substrate + 200 μM NADH) [%] |
| --- | --- | --- | --- | --- |
| COc1cccc(OC)c1O [syringol, 2,6-dimethoxyphenol] | 5.1±0.8 μM NADH s^−1 μmol GcoA-F169A^−1 | 4.1±0.3 μM s^−1 μmol GcoA-F169A^−1 | 7.4 ± 0.03 | 7.9 ± 0.5 |
| COc1ccccc1O [guaiacol, 2-methoxyphenol] | 5.8±0.8 μM NADH s^−1 μmol GcoA-F169A^−1 | 5.3±0.3 μM s^−1 μmol GcoA-F169A^−1 | 3.7 ± 0.6 |  |
| COc1cccc(O)c1O [3MC, 3-methoxycatechol] | 5.6±0.8 μM NADH s^−1 μmol GcoA-F169A^−1 | 2.6±0.3 μM s^−1 μmol GcoA-F169A^−1 | 17 ± 0.2 |  |
